Where two headings read alike, the source gives them in different places. Starred links: 1 amine or outer side, 2 acyl side, 3 side chain; linkers in the order of their positions; H or OH if unused. Non-standard residues stand in square brackets, D forms with d. Residues, ends and D or L forms follow the SMILES beside them. Groups on a side chain read outwards from the residue. *: point of attachment. C18 diacid = O=C(O)CCCCCCCCCCCCCCCCC(=O)*; γGlu = O=C(O)[C@H](CCC(=O)[*:2])N[*:1]; AEEA = NCCOCCOCC(=O)O; Aib = CC(C)(N)C(=O)O
Target: T1, human CRF2α receptor (Homo sapiens, UniProt Q13324)
T1 construct: expressed in transfected cells; host or cells: TeloHEAC
T1 sequence (Q13324 1-411): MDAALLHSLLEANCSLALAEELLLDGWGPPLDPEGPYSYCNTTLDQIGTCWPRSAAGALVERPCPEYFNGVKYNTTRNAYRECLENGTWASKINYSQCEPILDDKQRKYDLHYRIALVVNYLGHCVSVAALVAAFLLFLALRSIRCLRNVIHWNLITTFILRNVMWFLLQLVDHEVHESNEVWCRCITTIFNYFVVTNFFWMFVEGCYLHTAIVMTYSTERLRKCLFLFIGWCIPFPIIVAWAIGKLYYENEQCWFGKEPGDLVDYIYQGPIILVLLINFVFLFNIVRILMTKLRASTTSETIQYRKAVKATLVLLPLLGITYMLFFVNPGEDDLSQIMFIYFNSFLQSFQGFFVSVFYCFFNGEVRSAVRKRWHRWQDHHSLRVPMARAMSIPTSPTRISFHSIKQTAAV
Test: cAMP agonism at human CRF2 α receptor in TeloHEAC cells (Example 7)
Assay type: cell-based
Settings: cAMP HTRF, TeloHEAC cells stably expressing human CRF2 α
In short: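 Percent activation was referenced to 1000 nM UCN2 (100%), and EC50 values taken as concentrations giving half of maximal response. The read-out was a homogeneous time-resolved fluorescence cAMP kit, fluorescence ratio 665/620 nm. Thawed cells (2000/well) saw compound for 30 min at RT in buffer with 2 mM IBMX and 0%/0.1% HSA.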

[1] = 0% HSA, read-out: EC50 [nM], 0% HSA
[2] = 0.1% HSA, read-out: EC50 [nM], 0.1% HSA

EC50 [1] [nM]	EC50 [2] [nM]	Structure (SMILES)
1.27	61.1	CC[C@H](C)[C@H](N)C(=O)N[C@H](C(=O)N[C@@H](CC(C)C)C(=O)N[C@@H](CO)C(=O)N[C@@H](CC(C)C)C(=O)N[C@@H](CC(=O)O)C(=O)N[C@H](C(=O)N1CCC[C@H]1C(=O)N[C@H](C(=O)N[C@@H](CCCCN)C(=O)N[C@@H](CC(C)C)C(=O)N[C@@H](CCCCNC(=O)COCCOCCNC(=O)COCCOCCNC(=O)CC[C@H](NC(=O)CCCCCCCCCCCCCCCCC(=O)O)C(=O)O)C(=O)N[C@@H](CCC(N)=O)C(=O)N[C@H](C(=O)N[C@@H](CC(C)C)C(=O)N[C@@H](CC(C)C)C(=O)N[C@@H](CCCCN)C(=O)N[C@@H](CCC(N)=O)C(=O)N[C@@H](CCC(=O)O)C(=O)N[C@@H](CCCNC(=N)N)C(=O)N[C@@H](CCC(N)=O)C(=O)N[C@@H](CCCCN)C(=O)N[C@@H](CCCCN)C(=O)N[C@@H](CCC(N)=O)C(=O)N[C@@H](CCCNC(=N)N)C(=O)N[C@@H](CCC(=O)O)C(=O)N[C@@H](CCC(N)=O)C(=O)N[C@@H](C)C(=O)N[C@@H](CCC(=O)O)C(=O)N[C@@H](CCCCN)C(=O)N[C@@H](CC(N)=O)C(=O)N[C@@H](CCCCN)C(=O)N[C@@H](CCC(N)=O)C(=O)N[C@H](C(=O)N[C@@H](CC(C)C)C(=O)N[C@@H](CCC(=O)O)C(=O)N[C@@H](CCC(N)=O)C(=O)N[C@H](C(N)=O)C(C)C)[C@@H](C)CC)[C@@H](C)CC)[C@@H](C)CC)C(C)C)C(C)C [compound 120] (H-IVLSLDVPIKLK([AEEA-AEEA-γGlu-C18 diacid])QILLKQERQKKQREQAEKNKQILEQV-NH2)
0.16	5.14	CC[C@H](C)[C@H](N)C(=O)N[C@H](C(=O)N[C@@H](CC(C)C)C(=O)N[C@@H](CO)C(=O)N[C@@H](CC(C)C)C(=O)N[C@@H](CC(=O)O)C(=O)N[C@@H](C(=O)N1CCC[C@H]1C(=O)N[C@H](C(=O)N[C@@H](CCCCN)C(=O)N[C@@H](CC(C)C)C(=O)N[C@@H](CCCCNC(=O)COCCOCCNC(=O)COCCOCCNC(=O)CC[C@H](NC(=O)CCCCCCCCCCCCCCCCC(=O)O)C(=O)O)C(=O)N[C@@H](CCC(N)=O)C(=O)N[C@H](C(=O)N[C@@H](CC(C)C)C(=O)N[C@@H](CC(C)C)C(=O)N[C@@H](CCC(=O)O)C(=O)N[C@@H](CCC(N)=O)C(=O)N[C@@H](C)C(=O)N[C@@H](CCCCN)C(=O)N[C@@H](CCC(N)=O)C(=O)N[C@@H](CCCCN)C(=O)NC(C)(C)C(=O)N[C@@H](CCC(N)=O)C(=O)N[C@@H](CCCNC(=N)N)C(=O)N[C@@H](CCC(=O)O)C(=O)N[C@@H](CCC(N)=O)C(=O)N[C@@H](C)C(=O)N[C@@H](CCC(=O)O)C(=O)N[C@@H](CCCCN)C(=O)N[C@@H](CC(N)=O)C(=O)N[C@@H](CCCCN)C(=O)N[C@@H](CCCNC(=N)N)C(=O)N[C@H](C(=O)N[C@@H](CC(C)C)C(=O)N[C@@H](CCC(=O)O)C(=O)N[C@@H](CCCNC(=N)N)C(=O)N[C@H](C(N)=O)C(C)C)[C@@H](C)CC)[C@@H](C)CC)[C@@H](C)CC)C(C)C)C(C)C [compound 127] (H-IVLSLD[dV]PIKLK([AEEA-AEEA-γGlu-C18 diacid])QILLEQAKQK[Aib]QREQAEKNKRILERV-NH2; N-terminus assumed)
0.64	20.1	CC[C@H](C)[C@H](N)C(=O)N[C@H](C(=O)N[C@@H](CC(C)C)C(=O)N[C@@H](CO)C(=O)N[C@@H](CC(C)C)C(=O)N[C@@H](CC(=O)O)C(=O)N[C@@H](C(=O)N1CCC[C@H]1C(=O)N[C@H](C(=O)N[C@@H](CCCCN)C(=O)N[C@@H](CC(C)C)C(=O)N[C@@H](CCCCNC(=O)COCCOCCNC(=O)COCCOCCNC(=O)CC[C@H](NC(=O)CCCCCCCCCCCCCCCCC(=O)O)C(=O)O)C(=O)N[C@@H](CCC(N)=O)C(=O)N[C@H](C(=O)N[C@@H](CC(C)C)C(=O)N[C@@H](CC(C)C)C(=O)N[C@@H](CCCCN)C(=O)N[C@@H](CCC(N)=O)C(=O)N[C@@H](C)C(=O)N[C@@H](CCCNC(=N)N)C(=O)N[C@@H](CCC(N)=O)C(=O)N[C@@H](CCCCN)C(=O)NC(C)(C)C(=O)N[C@@H](CCC(N)=O)C(=O)N[C@@H](CCCNC(=N)N)C(=O)N[C@@H](CCC(=O)O)C(=O)N[C@@H](CCC(N)=O)C(=O)N[C@@H](C)C(=O)N[C@@H](CCC(=O)O)C(=O)N[C@@H](CCCCN)C(=O)N[C@@H](CC(N)=O)C(=O)N[C@@H](CCCCN)C(=O)N[C@@H](CCCNC(=N)N)C(=O)N[C@H](C(=O)N[C@@H](CC(C)C)C(=O)N[C@@H](CCC(=O)O)C(=O)N[C@@H](CCCNC(=N)N)C(=O)N[C@H](C(N)=O)C(C)C)[C@@H](C)CC)[C@@H](C)CC)[C@@H](C)CC)C(C)C)C(C)C [compound 128] (H-IVLSLD[dV]PIKLK([AEEA-AEEA-γGlu-C18 diacid])QILLKQARQK[Aib]QREQAEKNKRILERV-NH2; N-terminus assumed)
0.15	3.02	CC[C@H](C)[C@H](N)C(=O)N[C@H](C(=O)N[C@@H](CC(C)C)C(=O)N[C@@H](CO)C(=O)N[C@@H](CC(C)C)C(=O)N[C@@H](CC(=O)O)C(=O)N[C@@H](C(=O)N1CCC[C@H]1C(=O)N[C@H](C(=O)N[C@@H](CCCCN)C(=O)N[C@@H](CC(C)C)C(=O)N[C@@H](CCCCNC(=O)COCCOCCNC(=O)COCCOCCNC(=O)CC[C@H](NC(=O)CCCCCCCCCCCCCCCCC(=O)O)C(=O)O)C(=O)N[C@@H](CCC(N)=O)C(=O)N[C@H](C(=O)N[C@@H](CC(C)C)C(=O)N[C@@H](CC(C)C)C(=O)N[C@@H](CCC(=O)O)C(=O)N[C@@H](CCC(N)=O)C(=O)N[C@@H](CCC(=O)O)C(=O)N[C@@H](CCCNC(=N)N)C(=O)N[C@@H](CCC(N)=O)C(=O)N[C@@H](CCCCN)C(=O)NC(C)(C)C(=O)N[C@@H](CCC(N)=O)C(=O)N[C@@H](CCCNC(=N)N)C(=O)N[C@@H](CCC(=O)O)C(=O)N[C@@H](CCC(N)=O)C(=O)N[C@@H](C)C(=O)N[C@@H](CCC(=O)O)C(=O)N[C@@H](CCCCN)C(=O)N[C@@H](CC(N)=O)C(=O)N[C@@H](CCCCN)C(=O)N[C@@H](CCC(N)=O)C(=O)N[C@H](C(=O)N[C@@H](CC(C)C)C(=O)N[C@@H](C)C(=O)N[C@@H](CCC(N)=O)C(=O)N[C@H](C(N)=O)C(C)C)[C@@H](C)CC)[C@@H](C)CC)[C@@H](C)CC)C(C)C)C(C)C [compound 129] (H-IVLSLD[dV]PIKLK([AEEA-AEEA-γGlu-C18 diacid])QILLEQERQK[Aib]QREQAEKNKQILAQV-NH2)

From US12679878B2, “CRF2 receptor agonists and their use in therapy” (SANOFI, priority 2020, dated 2026)
